Measured values published in ChEMBL document CHEMBL1131484, “Human growth hormone-releasing hormone hGHRH(1-29)-NH2: systematic structure-activity relationship studies” (J Med Chem, 1998).

Target: T1, Growth hormone-releasing hormone receptor (Rattus norvegicus) (UniProt Q02644)
T1 sequence (whole entry): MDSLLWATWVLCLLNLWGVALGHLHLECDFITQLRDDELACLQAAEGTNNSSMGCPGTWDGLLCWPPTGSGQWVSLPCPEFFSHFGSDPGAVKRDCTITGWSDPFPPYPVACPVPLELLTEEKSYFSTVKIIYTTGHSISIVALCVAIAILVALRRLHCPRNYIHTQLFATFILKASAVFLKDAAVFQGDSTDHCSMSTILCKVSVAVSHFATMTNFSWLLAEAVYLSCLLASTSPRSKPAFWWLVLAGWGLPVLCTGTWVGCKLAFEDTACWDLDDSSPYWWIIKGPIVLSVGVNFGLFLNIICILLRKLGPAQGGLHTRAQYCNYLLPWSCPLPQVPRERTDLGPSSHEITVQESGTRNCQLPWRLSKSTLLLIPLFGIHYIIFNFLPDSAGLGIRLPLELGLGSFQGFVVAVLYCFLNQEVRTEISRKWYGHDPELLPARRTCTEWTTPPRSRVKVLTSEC
Assay: Potency for growth hormone releasing hormone receptor (GHRFR) relative to human GHRH(1-40)OH- in the rat pituitary cell culture assay
Format: functional, cell-based
Conditions: Pituitary gland cell

Row | Relative potency | Compound
1 | 10.7 | CCCC[C@H]1NC(=O)[C@H]([C@@H](C)CC)NC(=O)[C@H](NC(=O)[C@H](CCC(N)=O)NC(=O)[C@H](CC(C)C)NC(=O)[C@H](CC(C)C)NC(=O)[C@H](CCCCN)NC(=O)[C@H](CCCN=C(N)N)NC(=O)[C@H](C)NC(=O)[C@H](CO)NC(=O)[C@H](CC(C)C)NC(=O)[C@H](CCC(N)=O)NC(=O)[C@H](C)NC(=O)[C@H](CC(C)C)NC(=O)[C@@H](NC(=O)[C@H](CCCCN)NC(=O)[C@H](CCCN=C(N)N)NC(=O)[C@H](Cc2ccc(O)cc2)NC(=O)[C@H](CO)NC(=O)[C@H](CC(N)=O)NC(=O)[C@@H](NC(=O)[C@H](Cc2ccccc2)NC(=O)[C@@H](NC(=O)[C@H](C)NC(=O)[C@H](CC(=O)O)NC(=O)[C@H](C)NC(=O)[C@@](C)(N)Cc2ccc(O)cc2)[C@@H](C)CC)[C@@H](C)O)C(C)C)CCC(=O)NCC[C@H](C(N)=O)NC(=O)[C@H](CO)NC1=O
2 | 0.4 | CC[C@@H](C)[C@@H](NC(=O)[C@@H](CC(=O)O)NC(=O)[C@@H](CCC(N)=O)NC(=O)[C@@H](CC(C)C)NC(=O)[C@H]1CCCCNC(=O)CC[C@H](NC(=O)[C@H](CO)NC(=O)[C@H](CC(C)C)NC(=O)[C@H](CCC(N)=O)NC(=O)CNC(=O)[C@H](CC(C)C)NC(=O)[C@@H](NC(=O)[C@H](CCCCN)NC(=O)[C@H](CCCN=C(N)N)NC(=O)[C@H](Cc2ccc(O)cc2)NC(=O)[C@H](CO)NC(=O)[C@H](CC(N)=O)NC(=O)[C@@H](NC(=O)[C@H](Cc2ccccc2)NC(=O)[C@@H](NC(=O)[C@H](C)NC(=O)[C@H](CC(=O)O)NC(=O)[C@H](C)NC(=O)[C@@H](N)Cc2ccc(O)cc2)[C@@H](C)CC)[C@@H](C)O)C(C)C)C(=O)N[C@@H](CCCN=C(N)N)C(=O)N[C@H](CCCCN)C(=O)N1)C(=O)N[C@@H](CCSC)C(=O)N[C@@H](CO)C(=O)N[C@@H](CCCN=C(N)N)C(N)=O
3 | 1.8 | CC[C@H](C)[C@H](NC(=O)[C@H](C)NC(=O)[C@H](CC(=O)O)NC(=O)[C@H](C)NC(=O)[C@@H](N)Cc1ccc(O)cc1)C(=O)N[C@@H](Cc1ccccc1)C(=O)N[C@H](C(=O)N[C@@H](CC(N)=O)C(=O)N[C@@H](CO)C(=O)N[C@@H](Cc1ccc(O)cc1)C(=O)N[C@@H](CCCN=C(N)N)C(=O)N[C@@H](CCCCN)C(=O)N[C@H](C(=O)N[C@@H](CC(C)C)C(=O)NCC(=O)N[C@@H](CCC(N)=O)C(=O)N[C@@H](CC(C)C)C(=O)N[C@@H]1CCC(=O)NCCCC[C@@H](C(=O)N[C@@H](CC(C)C)C(=O)N[C@@H](CC(C)C)C(=O)N[C@@H](CCC(N)=O)C(=O)N[C@@H](CC(=O)O)C(=O)N[C@H](C(=O)N[C@@H](CCSC)C(=O)N[C@@H](CO)C(=O)N[C@@H](CCCN=C(N)N)C(N)=O)[C@@H](C)CC)NC(=O)[C@H](CCCN=C(N)N)NC(=O)[C@@H](C)NC1=O)C(C)C)[C@@H](C)O
4 | 2.8 | CC[C@H](C)[C@H](NC(=O)[C@H](C)NC(=O)[C@H](CC(=O)O)NC(=O)[C@H](C)NC(=O)[C@@H](N)Cc1ccc(O)cc1)C(=O)N[C@@H](Cc1ccccc1)C(=O)N[C@H](C(=O)N[C@@H](CC(N)=O)C(=O)N[C@@H](CO)C(=O)N[C@@H](Cc1ccc(O)cc1)C(=O)N[C@@H](CCCN=C(N)N)C(=O)N[C@@H](CCCCN)C(=O)N[C@H](C(=O)N[C@@H](CC(C)C)C(=O)NCC(=O)N[C@H]1CCC(=O)NCCCC[C@H](C(=O)N[C@@H](CCCN=C(N)N)C(=O)N[C@@H](CCCCN)C(=O)N[C@@H](CC(C)C)C(=O)N[C@@H](CC(C)C)C(=O)N[C@@H](CCC(N)=O)C(=O)N[C@@H](CC(=O)O)C(=O)N[C@H](C(=O)N[C@@H](CCSC)C(=O)N[C@@H](CO)C(=O)N[C@@H](CCCN=C(N)N)C(N)=O)[C@@H](C)CC)NC(=O)[C@@H](CO)NC(=O)[C@H](CC(C)C)NC1=O)C(C)C)[C@@H](C)O
5 | 1.2 | CC[C@H](C)[C@H](NC(=O)[C@H](C)NC(=O)[C@H](CC(=O)O)NC(=O)[C@H](C)NC(=O)[C@@H](N)Cc1ccc(O)cc1)C(=O)N[C@@H](Cc1ccccc1)C(=O)N[C@H](C(=O)N[C@@H](CC(N)=O)C(=O)N[C@@H](CO)C(=O)N[C@@H](Cc1ccc(O)cc1)C(=O)N[C@@H](CCCN=C(N)N)C(=O)N[C@H]1CCC(=O)NCCCC[C@H](C(=O)N[C@H](CCC(N)=O)C(=O)N[C@H](CC(C)C)C(=O)N[C@H](CO)C(=O)N[C@H](C)C(=O)N[C@@H](CCCN=C(N)N)C(=O)N[C@@H](CCCCN)C(=O)N[C@@H](CC(C)C)C(=O)N[C@@H](CC(C)C)C(=O)N[C@@H](CCC(N)=O)C(=O)N[C@@H](CC(=O)O)C(=O)N[C@H](C(=O)N[C@@H](CCSC)C(=O)N[C@@H](CO)C(=O)N[C@@H](CCCN=C(N)N)C(N)=O)[C@@H](C)CC)NC(=O)[C@@H](CC(C)C)NC(=O)[C@H](C(C)C)NC1=O)[C@@H](C)O
6 | 0.014 | CC[C@H](C)[C@H](NC(=O)[C@H](C)NC(=O)[C@H](CC(=O)O)NC(=O)[C@H](C)NC(=O)[C@@H](N)Cc1ccc(O)cc1)C(=O)N[C@@H](Cc1ccccc1)C(=O)N[C@H](C(=O)N[C@H]1CCC(=O)NCCCC[C@H](C(=O)N[C@@H](CCCCN)C(=O)N[C@H](C(=O)N[C@@H](CC(C)C)C(=O)NCC(=O)N[C@@H](CCC(N)=O)C(=O)N[C@@H](CC(C)C)C(=O)N[C@@H](CO)C(=O)N[C@@H](C)C(=O)N[C@@H](CCCN=C(N)N)C(=O)N[C@@H](CCCCN)C(=O)N[C@@H](CC(C)C)C(=O)N[C@@H](CC(C)C)C(=O)N[C@@H](CCC(N)=O)C(=O)N[C@@H](CC(=O)O)C(=O)N[C@H](C(=O)N[C@@H](CCSC)C(=O)N[C@@H](CO)C(=O)N[C@@H](CCCN=C(N)N)C(N)=O)[C@@H](C)CC)C(C)C)NC(=O)[C@H](Cc2ccc(O)cc2)NC(=O)[C@H](CO)NC1=O)[C@@H](C)O

The next lines start with the compound.

Row | Compound | Relative potency
7 | CCCC[C@H]1NC(=O)[C@H]([C@@H](C)CC)NC(=O)[C@@H](NC(=O)[C@H](Cc2c[nH]cn2)NC(=O)[C@H](CC(C)C)NC(=O)[C@H](CC(C)C)NC(=O)[C@H](CCCCN)NC(=O)[C@H](CCCN=C(N)N)NC(=O)[C@H](Cc2ccccc2)NC(=O)[C@@H](NC(=O)[C@H](CC(C)C)NC(=O)[C@H](CCC(N)=O)NC(=O)[C@H](C)NC(=O)[C@H](CC(C)C)NC(=O)[C@@H](NC(=O)[C@H](CCCN=C(N)N)NC(=O)[C@H](CCCN=C(N)N)NC(=O)[C@H](Cc2ccc(O)cc2)NC(=O)[C@H](CO)NC(=O)[C@H](CO)NC(=O)[C@@H](NC(=O)[C@H](Cc2ccccc2)NC(=O)[C@@H](NC(=O)[C@H](C)NC(=O)[C@H](CC(=O)O)NC(=O)[C@H](C)NC(=O)[C@@](C)(N)Cc2c[nH]cn2)[C@@H](C)CC)[C@@H](C)O)[C@@H](C)CC)[C@@H](C)CC)CSSC[C@@H](C(N)=O)NC(=O)[C@H](CC(N)=O)NC1=O | 1.1
8 | CC[C@@H](C)[C@@H](NC(=O)[C@@H](C)NC(=O)[C@@H](CC(=O)O)NC(=O)[C@@H](C)NC(=O)[C@H](N)Cc1ccc(O)cc1)C(=O)N[C@H](Cc1ccccc1)C(=O)N[C@@H]1CCC(=O)NCCCC[C@@H](C(=O)N[C@@H](CCCN=C(N)N)C(=O)N[C@@H](CCCCN)C(=O)N[C@H](C(=O)N[C@@H](CC(C)C)C(=O)NCC(=O)N[C@@H](CCC(N)=O)C(=O)N[C@@H](CC(C)C)C(=O)N[C@@H](CO)C(=O)N[C@@H](C)C(=O)N[C@@H](CCCN=C(N)N)C(=O)N[C@@H](CCCCN)C(=O)N[C@@H](CC(C)C)C(=O)N[C@@H](CC(C)C)C(=O)N[C@@H](CCC(N)=O)C(=O)N[C@@H](CC(=O)O)C(=O)N[C@H](C(=O)N[C@@H](CCSC)C(=O)N[C@@H](CO)C(=O)N[C@@H](CCCN=C(N)N)C(N)=O)[C@@H](C)CC)C(C)C)NC(=O)[C@H](CO)NC(=O)[C@@H](CC(N)=O)NC1=O | 0.008
9 | CC[C@@H](C)[C@@H](NC(=O)[C@@H](CC(=O)O)NC(=O)[C@H]1CCCCNC(=O)CC[C@H](NC(=O)[C@H](CCCN=C(N)N)NC(=O)[C@H](C)NC(=O)[C@H](CO)NC(=O)[C@H](CC(C)C)NC(=O)[C@H](CCC(N)=O)NC(=O)CNC(=O)[C@H](CC(C)C)NC(=O)[C@@H](NC(=O)[C@H](CCCCN)NC(=O)[C@H](CCCN=C(N)N)NC(=O)[C@H](Cc2ccc(O)cc2)NC(=O)[C@H](CO)NC(=O)[C@H](CC(N)=O)NC(=O)[C@@H](NC(=O)[C@H](Cc2ccccc2)NC(=O)[C@@H](NC(=O)[C@H](C)NC(=O)[C@H](CC(=O)O)NC(=O)[C@H](C)NC(=O)[C@@H](N)Cc2ccc(O)cc2)[C@@H](C)CC)[C@@H](C)O)C(C)C)C(=O)N[C@@H](CC(C)C)C(=O)N[C@H](CC(C)C)C(=O)N1)C(=O)N[C@H](CCSC)C(=O)N[C@H](CO)C(=O)N[C@H](CCCN=C(N)N)C(N)=O | 4.5
10 | CC[C@H](C)[C@H](NC(=O)[C@H](C)NC(=O)[C@H](CC(=O)O)NC(=O)[C@H](C)NC(=O)[C@@H](N)Cc1ccc(O)cc1)C(=O)N[C@@H](Cc1ccccc1)C(=O)N[C@H](C(=O)N[C@@H](CC(N)=O)C(=O)N[C@@H](CO)C(=O)N[C@@H](Cc1ccc(O)cc1)C(=O)N[C@@H](CCCN=C(N)N)C(=O)N[C@@H](CCCCN)C(=O)N[C@H](C(=O)N[C@@H](CC(C)C)C(=O)NCC(=O)N[C@@H](CCC(N)=O)C(=O)N[C@@H](CC(C)C)C(=O)N[C@@H](CO)C(=O)N[C@@H](C)C(=O)N[C@@H](CCCN=C(N)N)C(=O)N[C@@H](CCCCN)C(=O)N[C@@H](CC(C)C)C(=O)N[C@@H](CC(C)C)C(=O)N[C@@H](CCC(N)=O)C(=O)N[C@@H](CC(=O)O)C(=O)N[C@H](C(=O)N[C@@H](CCSC)C(=O)N[C@@H](CO)C(=O)N[C@@H](CCCN=C(N)N)C(=O)N[C@@H](CCC(N)=O)C(=O)N[C@H](CCC(N)=O)C(=O)NCC(=O)N[C@@H](CCC(=O)O)C(=O)N[C@@H](CO)C(=O)N[C@@H](CC(N)=O)C(=O)N[C@@H](CCC(N)=O)C(=O)N[C@@H](CCC(=O)O)C(=O)N[C@@H](CCCN=C(N)N)C(=O)NCC(=O)N[C@@H](C)C(=O)O)[C@@H](C)CC)C(C)C)[C@@H](C)O | 1
